Measured values: publication PMC6934184, “Selective DNA-PKcs inhibition extends the therapeutic index of localized radiotherapy and chemotherapy” (The Journal of Clinical Investigation, 2019)

Molecular target: T1, MET M1250T (Homo sapiens, UniProt P08581, M1250T)
T1 construct: purchased Thermo Fisher Scientific (Life Technologies) SelectScreen
Assay: SelectScreen Z'LYTE
Format: biochemical
Outline: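 Percent values come from Thermo SelectScreen profiling of NU5455, combining activity and binding assays. CSF1R was run in Z'LYTE format at Km app ATP, and CAMK1 in Adapta format with ATP listed at 10.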

T1 sequence (P08581 25-1390 M1250T): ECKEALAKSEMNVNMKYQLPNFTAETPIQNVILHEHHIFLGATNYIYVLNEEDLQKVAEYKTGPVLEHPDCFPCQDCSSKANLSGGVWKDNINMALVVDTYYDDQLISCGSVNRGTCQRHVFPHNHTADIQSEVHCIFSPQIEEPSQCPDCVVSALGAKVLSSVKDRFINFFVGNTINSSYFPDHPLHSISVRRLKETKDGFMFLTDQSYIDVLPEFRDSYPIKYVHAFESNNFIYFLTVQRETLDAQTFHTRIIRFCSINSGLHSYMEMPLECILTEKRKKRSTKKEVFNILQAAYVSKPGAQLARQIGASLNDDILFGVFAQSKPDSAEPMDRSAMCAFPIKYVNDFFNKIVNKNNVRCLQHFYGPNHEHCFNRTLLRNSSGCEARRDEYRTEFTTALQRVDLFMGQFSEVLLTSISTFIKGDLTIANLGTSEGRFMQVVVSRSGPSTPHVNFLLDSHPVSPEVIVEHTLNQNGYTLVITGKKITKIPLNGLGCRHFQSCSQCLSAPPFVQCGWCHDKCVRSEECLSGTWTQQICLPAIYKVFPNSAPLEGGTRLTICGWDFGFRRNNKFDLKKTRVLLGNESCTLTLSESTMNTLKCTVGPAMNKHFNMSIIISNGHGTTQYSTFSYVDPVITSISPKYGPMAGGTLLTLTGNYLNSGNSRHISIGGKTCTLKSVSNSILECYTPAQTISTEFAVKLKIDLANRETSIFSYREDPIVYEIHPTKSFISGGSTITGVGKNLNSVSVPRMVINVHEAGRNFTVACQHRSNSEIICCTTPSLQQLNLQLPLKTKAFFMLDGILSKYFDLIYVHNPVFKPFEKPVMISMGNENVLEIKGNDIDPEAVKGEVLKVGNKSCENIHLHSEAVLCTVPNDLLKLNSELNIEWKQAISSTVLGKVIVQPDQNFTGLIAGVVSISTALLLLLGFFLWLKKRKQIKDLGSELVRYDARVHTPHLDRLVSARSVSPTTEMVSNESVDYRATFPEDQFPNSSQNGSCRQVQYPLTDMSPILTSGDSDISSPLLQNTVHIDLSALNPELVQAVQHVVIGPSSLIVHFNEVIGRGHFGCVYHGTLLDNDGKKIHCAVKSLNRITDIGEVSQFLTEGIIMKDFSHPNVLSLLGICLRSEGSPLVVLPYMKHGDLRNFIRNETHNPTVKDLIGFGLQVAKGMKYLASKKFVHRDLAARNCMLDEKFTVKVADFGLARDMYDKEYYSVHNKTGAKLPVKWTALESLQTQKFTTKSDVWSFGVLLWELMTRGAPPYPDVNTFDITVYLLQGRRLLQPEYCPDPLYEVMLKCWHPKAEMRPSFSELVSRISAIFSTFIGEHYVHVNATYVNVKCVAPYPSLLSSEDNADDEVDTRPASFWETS

Work on `CN(C(=O)CN1CCOCC1)c1ccc2sc3c(-c4cccc5c(=O)cc(N6CC7CCC(C6)O7)oc45)cccc3c2c1` [NU5455] yielded an inhibition at 1 µM of -14.5%.
